Several values for one entry are separate records, joined by “and”; a condition that tells them apart may be missing. Equal values may be shown once. Activity calls are given as the source filed them.
Experiments:
[1] = inhibitors of SNCA 5'UTR-driven reporter translation, confirmation, H4 neuroglioma cells, luminescence (AID 1988); format: functional, cell-based
[2] = inhibitors of control Renilla luciferase reporter, dose response, counter-screen for Shn3 3'UTR targeting project, Clone20-Shn3RL cells, dual-Glo, cherry-pick, set 2 (AID 720724); format: functional, cell-based; settings: Dual-Go Shn3RL
[3] = inhibitors of firefly luciferase expression or activity, dose response, H4 neuroglioma cells, luminescence (AID 1990); format: functional, cell-based
[4] = Shn3 3'UTR reporter inhibitors, dose response, cell-based, Clone20 osteoblasts, firefly luciferase, cherry-picked (AID 624132); format: functional;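 also: firefly luciferase luminescence from reporter carrying the Shn3 3'UTR in osteoblasts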
[5] = reduction of endogenous Shn3 mRNA, dose response, qPCR, Clone20 cells, cherry-pick (AID 743415); format: functional, cell-based
[6] = control 3'UTR Renilla luciferase suppression, dose response, counter-screen for Shn3 inhibitor project, cell-based, Clone20-Shn3RL, cherry-picked (AID 624133); format: functional
[7] = reduction of Shn3 3'UTR firefly luciferase signal, dose response, Schnurri-3 inhibitor project, cell-based, Clone20 osteoblasts, cherry-pick, set 2 (AID 720490); format: functional;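 also: actives lower the luminescence signal as inhibitors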
[8] = HepG2 cell cytotoxicity, dose response, cytotoxicity control for Shn3 inhibitor project, CellTiter-Glo, cherry-picked (AID 624134); format: functional, cell-based
[9] = THP-1 cell cytotoxicity, dose response, cytotoxicity control for non-replicating M. tuberculosis project (AID 489025); format: functional
[10] = C. albicans growth with fluconazole, confirmation, fluorescence, retest (AID 2467); format: functional, cell-based
[11] = NIH-3T3 fibroblast cytotoxicity, dose response, cytotoxicity control, cell-based, fluorescence, Alamar Blue, secondary assay (AID 2327); format: functional;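 also: NIH-3T3 mouse fibroblasts cultured with fluconazole at 8 µg/mL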
[12] = target: 1-phosphatidylinositol 4,5-bisphosphate phosphodiesterase gamma-1 (Homo sapiens, UniProt P19174); test: Counterscreen for inhibitors of phospholipase C isozymes (PLC-B3): Fluorescence-based biochemical high throughput dose response assay to identify inhibitors of phospholipase C isozymes (PLC-gamma1).
Sequence of 1-phosphatidylinositol 4,5-bisphosphate phosphodiesterase gamma-1 (P19174 whole entry): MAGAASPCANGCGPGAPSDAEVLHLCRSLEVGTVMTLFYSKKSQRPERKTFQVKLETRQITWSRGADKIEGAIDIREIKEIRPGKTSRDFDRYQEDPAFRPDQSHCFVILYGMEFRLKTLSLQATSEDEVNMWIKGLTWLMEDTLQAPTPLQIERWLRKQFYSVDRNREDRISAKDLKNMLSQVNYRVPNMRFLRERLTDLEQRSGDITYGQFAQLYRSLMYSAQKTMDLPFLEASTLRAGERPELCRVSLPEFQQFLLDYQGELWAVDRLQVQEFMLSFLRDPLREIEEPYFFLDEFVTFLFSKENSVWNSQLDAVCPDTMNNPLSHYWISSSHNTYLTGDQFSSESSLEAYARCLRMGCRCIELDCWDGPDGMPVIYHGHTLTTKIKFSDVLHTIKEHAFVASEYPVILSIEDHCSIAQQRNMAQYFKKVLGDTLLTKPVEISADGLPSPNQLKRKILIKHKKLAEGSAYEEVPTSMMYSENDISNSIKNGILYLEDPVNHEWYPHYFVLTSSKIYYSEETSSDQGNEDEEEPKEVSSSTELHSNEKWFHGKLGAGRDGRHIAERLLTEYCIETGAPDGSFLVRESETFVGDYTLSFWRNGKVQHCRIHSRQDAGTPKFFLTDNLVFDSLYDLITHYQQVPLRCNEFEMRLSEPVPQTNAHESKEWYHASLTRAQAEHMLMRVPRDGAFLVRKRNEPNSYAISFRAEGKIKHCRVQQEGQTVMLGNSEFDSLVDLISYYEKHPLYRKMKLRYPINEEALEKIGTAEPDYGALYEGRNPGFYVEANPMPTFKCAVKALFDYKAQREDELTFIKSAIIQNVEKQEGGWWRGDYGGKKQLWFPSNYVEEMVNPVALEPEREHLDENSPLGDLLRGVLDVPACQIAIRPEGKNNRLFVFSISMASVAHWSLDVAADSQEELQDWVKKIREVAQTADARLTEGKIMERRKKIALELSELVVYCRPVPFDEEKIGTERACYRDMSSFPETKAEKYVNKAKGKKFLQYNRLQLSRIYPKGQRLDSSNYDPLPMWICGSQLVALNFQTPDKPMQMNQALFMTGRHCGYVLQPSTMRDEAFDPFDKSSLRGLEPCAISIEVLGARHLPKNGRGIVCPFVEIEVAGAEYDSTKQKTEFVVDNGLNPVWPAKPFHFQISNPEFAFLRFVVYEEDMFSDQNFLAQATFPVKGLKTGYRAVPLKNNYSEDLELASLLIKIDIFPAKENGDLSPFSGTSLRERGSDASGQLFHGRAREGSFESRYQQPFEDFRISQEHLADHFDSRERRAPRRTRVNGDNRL

[13] = target: 1-phosphatidylinositol 4,5-bisphosphate phosphodiesterase beta-3 (Homo sapiens, UniProt Q01970); test: Fluorescence-based biochemical high throughput dose response assay to identify inhibitors of phospholipase C isozymes (PLC-B3).
Sequence of 1-phosphatidylinositol 4,5-bisphosphate phosphodiesterase beta-3 (Q01970 whole entry): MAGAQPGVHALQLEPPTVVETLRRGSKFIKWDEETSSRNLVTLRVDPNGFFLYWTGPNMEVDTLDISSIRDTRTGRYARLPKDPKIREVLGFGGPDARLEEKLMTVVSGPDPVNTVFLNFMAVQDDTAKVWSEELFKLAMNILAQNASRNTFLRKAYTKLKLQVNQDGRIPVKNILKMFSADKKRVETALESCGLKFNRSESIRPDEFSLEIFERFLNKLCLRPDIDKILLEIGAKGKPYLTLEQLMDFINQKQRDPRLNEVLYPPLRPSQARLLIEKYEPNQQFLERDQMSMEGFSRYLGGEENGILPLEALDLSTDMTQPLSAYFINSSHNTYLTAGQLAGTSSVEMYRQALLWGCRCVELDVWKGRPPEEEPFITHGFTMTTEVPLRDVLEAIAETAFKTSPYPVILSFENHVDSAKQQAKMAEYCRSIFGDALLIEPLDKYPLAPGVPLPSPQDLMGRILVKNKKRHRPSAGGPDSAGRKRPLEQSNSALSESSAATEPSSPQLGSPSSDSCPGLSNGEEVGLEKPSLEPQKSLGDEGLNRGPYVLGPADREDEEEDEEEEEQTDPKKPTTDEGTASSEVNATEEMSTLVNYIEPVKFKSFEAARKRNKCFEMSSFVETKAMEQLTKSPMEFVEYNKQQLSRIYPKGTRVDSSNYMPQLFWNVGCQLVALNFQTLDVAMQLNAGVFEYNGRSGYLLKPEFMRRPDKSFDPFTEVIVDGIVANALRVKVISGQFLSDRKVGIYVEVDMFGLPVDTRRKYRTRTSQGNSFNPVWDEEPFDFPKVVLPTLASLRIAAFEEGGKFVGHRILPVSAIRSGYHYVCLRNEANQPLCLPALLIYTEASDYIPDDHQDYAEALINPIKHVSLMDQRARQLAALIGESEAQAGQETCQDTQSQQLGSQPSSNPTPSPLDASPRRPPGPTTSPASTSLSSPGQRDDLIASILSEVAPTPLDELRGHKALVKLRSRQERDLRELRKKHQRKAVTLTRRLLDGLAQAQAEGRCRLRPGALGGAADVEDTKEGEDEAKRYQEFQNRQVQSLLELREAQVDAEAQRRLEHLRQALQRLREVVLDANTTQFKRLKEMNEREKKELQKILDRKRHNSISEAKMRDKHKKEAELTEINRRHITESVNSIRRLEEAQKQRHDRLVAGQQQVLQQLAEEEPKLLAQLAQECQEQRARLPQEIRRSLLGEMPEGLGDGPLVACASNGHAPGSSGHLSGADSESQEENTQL

[14] = Vero E6 cell cytotoxicity, dose response, cytotoxicity control for non-replicating M. tuberculosis project, secondary assay (AID 492998); format: functional, VeroE6; settings: Vero C1008
[15] = test system: Streptococcus; test: Group A Streptococcus viability loss, dose response, counter-screen for streptokinase expression inhibitor project, luminescence, BacTiterGlo (AID 1915); format: functional, organism-based;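 also: potency for reduction of bacterial viability or growth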
[16] = TB: CFU replicating Measured in Microorganism System Using Imaging - 7108-05_Inhibitor_Dose_DryPowder_Activity_Set2.; format: functional
[17] = target: T1, Streptokinase A (Streptococcus pyogenes serotype M1, UniProt P10520); test: S. pyogenes streptokinase expression inhibitors, potency, dose response, plasminogen activation absorbance, OD405 (AID 1914); format: functional, Streptococcus pyogenes M1 GAS;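 also: secreted streptokinase activity via plasminogen activation per viability signal from cell pellet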
T1 sequence (P10520 whole entry): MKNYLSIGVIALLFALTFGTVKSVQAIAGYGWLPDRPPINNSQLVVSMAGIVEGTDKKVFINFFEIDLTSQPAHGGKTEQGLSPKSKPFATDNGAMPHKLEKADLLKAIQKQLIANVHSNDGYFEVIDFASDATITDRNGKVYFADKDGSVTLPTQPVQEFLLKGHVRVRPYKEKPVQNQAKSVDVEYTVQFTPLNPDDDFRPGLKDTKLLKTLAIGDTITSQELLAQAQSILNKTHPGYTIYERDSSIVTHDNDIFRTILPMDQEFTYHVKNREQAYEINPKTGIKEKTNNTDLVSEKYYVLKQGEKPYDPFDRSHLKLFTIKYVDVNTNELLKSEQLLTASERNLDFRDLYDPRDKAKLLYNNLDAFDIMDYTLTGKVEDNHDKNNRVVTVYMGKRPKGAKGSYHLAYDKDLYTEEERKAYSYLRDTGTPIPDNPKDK

[18] = cells; format: functional
[19] = test system: Streptococcus sp. 'group A'; test: growth inhibition of control SK(-) GAS strain, dose response, counter-screen for streptokinase expression inhibitor project, luminescence, kanamycin, BacTiterGlo, confirmation (AID 1900); format: functional, organism-based
[20] = cytotoxicity toward NIH3T3 fibroblasts, dose response, counter-screen, cell-based, ATP luminescence, mouse fibroblasts (AID 2010); format: functional;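 also: cells exposed to compound for about 90 hours before reading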
[21] = inhibitors of fibronectin matrix deposition, dose response, AH1F cells, Alexa488-FN fluorescence, cherry-picks (AID 1035475); format: functional, cell-based
[22] = inhibitors of intracellular T. cruzi replication, confirmation, NIH3T3 host cells, beta-gal luminescence (AID 2044); format: functional, cell-based;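 also: intracellular parasites grown in NIH/3T3 mouse fibroblasts as host cells; luminescent beta-galactosidase reporter signal from transgenic T. cruzi replicating inside host cells; inhibitors lower the luminescence signal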
[23] = target: T2, Oxysterols receptor LXR-beta (Homo sapiens, UniProt P55055); test: LXR agonists, Gal4 luciferase reporter, dose response, counter-screen for ssDAF-12 agonist project, cell-based, luminescence, HEK293, S. stercoralis campaign (AID 720737); format: functional; settings: read-out: IC50 (the source's name)
T2 sequence (P55055 whole entry): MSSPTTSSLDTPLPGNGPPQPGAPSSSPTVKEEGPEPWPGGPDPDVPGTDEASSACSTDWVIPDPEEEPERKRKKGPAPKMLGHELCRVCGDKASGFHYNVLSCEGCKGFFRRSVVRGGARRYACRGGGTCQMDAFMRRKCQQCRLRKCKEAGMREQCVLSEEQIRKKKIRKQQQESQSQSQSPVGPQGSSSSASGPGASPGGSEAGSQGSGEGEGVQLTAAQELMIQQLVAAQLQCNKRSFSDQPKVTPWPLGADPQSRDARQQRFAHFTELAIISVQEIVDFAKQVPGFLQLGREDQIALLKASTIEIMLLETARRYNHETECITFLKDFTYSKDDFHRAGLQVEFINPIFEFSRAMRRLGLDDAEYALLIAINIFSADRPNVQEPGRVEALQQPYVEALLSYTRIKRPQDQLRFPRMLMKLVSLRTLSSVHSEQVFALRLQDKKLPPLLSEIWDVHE

[24] = Luminescence-based cell-based high throughput dose response assay to identify activators of the DAF-12 from the parasite S. stercoralis (ssDAF-12).; format: functional
[25] = target: T3, Acyl-homoserine lactone acylase PvdQ (Pseudomonas aeruginosa (strain LESB58), UniProt Q9I194); test: P. aeruginosa PvdQ acylase inhibitors, dose response, biochemical, fluorescence, plate reader and imaging, cherry-picks (AID 493231)
T3 sequence (Q9I194 whole entry): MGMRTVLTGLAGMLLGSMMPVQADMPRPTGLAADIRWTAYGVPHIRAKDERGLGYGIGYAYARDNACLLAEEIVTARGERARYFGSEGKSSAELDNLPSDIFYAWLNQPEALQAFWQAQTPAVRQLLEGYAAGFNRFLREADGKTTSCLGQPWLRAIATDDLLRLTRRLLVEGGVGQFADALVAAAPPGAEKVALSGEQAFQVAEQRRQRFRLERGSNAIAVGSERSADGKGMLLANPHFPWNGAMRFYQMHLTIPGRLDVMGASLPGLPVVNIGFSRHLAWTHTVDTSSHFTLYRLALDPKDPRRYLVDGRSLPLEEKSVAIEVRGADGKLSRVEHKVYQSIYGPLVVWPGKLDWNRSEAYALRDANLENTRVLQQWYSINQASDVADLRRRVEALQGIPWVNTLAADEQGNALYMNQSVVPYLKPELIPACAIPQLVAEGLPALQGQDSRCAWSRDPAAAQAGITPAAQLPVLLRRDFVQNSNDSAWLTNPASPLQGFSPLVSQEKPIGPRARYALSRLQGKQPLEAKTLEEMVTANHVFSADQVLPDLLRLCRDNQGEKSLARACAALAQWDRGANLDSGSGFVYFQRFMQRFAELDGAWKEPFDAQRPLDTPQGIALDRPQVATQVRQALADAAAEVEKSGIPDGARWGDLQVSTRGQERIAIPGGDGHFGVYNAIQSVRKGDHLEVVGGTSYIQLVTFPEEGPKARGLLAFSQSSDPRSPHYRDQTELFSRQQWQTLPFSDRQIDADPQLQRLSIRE

[26] = cells
[27] = target: T2, Oxysterols receptor LXR-beta; format: functional, cell-based
[28] = HIV Env cell-cell fusion inhibitors, dose response, HIV entry, plate reader, dry powder (AID 687023); format: functional, cell-based
[29] = inhibitors of clade B AD8 Env fusion, dose response, cell-based, cherry-pick (AID 652062); format: functional;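 also: luciferase signal from cell-cell fusion driven by HIV-1 clade B AD8 Env; potency is for inhibitors of fusion seen as a drop in luminescence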
[30] = inhibitors of HIV Env-driven cell fusion, dose response, cherry-pick (AID 652057); format: functional, cell-based
[31] = NIH/3T3 fibroblast cytotoxicity, dose response, cytotoxicity control, cell-based, plate reader, dry powder, set 2 (AID 652280); format: functional; settings: NIH3T3
[32] = T. cruzi growth inhibition in host cells, dose response, cell-based, plate reader, dry powder, set 2 (AID 652275); format: functional
[33] = MITF Orthogonal Assay: SK-MEL-5 CTG Assay Measured in Cell-Based System Using Plate Reader - 2084-02_Inhibitor_Dose_DryPowder_Activity_Set7.; format: functional
[34] = MALME3 melanoma cell viability reduction, dose response, orthogonal assay for MITF inhibitor project, CellTiter-Glo luminescence, dry powder, set 5 (AID 651584); format: functional, cell-based; settings: MALME-3
[35] = MITF: Counter assay: A375 proliferation Measured in Cell-Based System Using Plate Reader - 2084-03_Inhibitor_Dose_DryPowder_Activity_Set8.; format: functional; settings: A-375
[36] = TRPM1 promoter luciferase reporter signal decrease, dose response, MITF inhibitor project, cell-based, SK-MEL-5, dry powder, set 8 (AID 624430); format: functional
[37] = MITF Orthogonal Assay: MALME3 CTG Assay Measured in Cell-Based System Using Plate Reader - 2084-04_Inhibitor_Dose_DryPowder_Activity_Set6.; format: functional; settings: MALME-3
[38] = SK-MEL-5 parental cell viability reduction, dose response, orthogonal assay for MITF inhibitor project, CellTiter-Glo luminescence, dry powder, set 8 (AID 651586); format: functional, cell-based
[39] = A375 melanoma cell viability loss, dose response, counter-screen for MITF modulator project, CellTiter-Glo luminescence, dry powder, set 9 (AID 651591); format: functional, cell-based; settings: A-375
[40] = cytotoxicity in primary human melanocytes, dose response, cytotoxicity control, cell-based, plate reader, dry powder (AID 651920); format: functional
[41] = TRPM1 promoter luciferase reporter signal decrease, dose response, MITF inhibitor project, cell-based, SK-MEL-5, dry powder, set 9 (AID 651588); format: functional
[42] = Late stage assay provider results from the probe development effort to identify inhibitors of the Plasmodium falciparum M18 Aspartyl Aminopeptidase (M18AAP): radiolabel-based cell-based dose response assay to identify compounds that inhibit P. falciparum growth in RBCs, Set 2..; format: functional
[43] = A Cell-Based Confirmatory Screen for Compounds that Inhibit VEEV, TC-83 (8).; format: functional
[44] = A Cell-Based Confirmatory Screen for Compounds that Inhibit VEEV, TC-83 (7).; format: functional
[45] = HepG2 cell cytotoxicity, dose response, cytotoxicity control, plate reader, dry powder, set 6 (AID 743311); format: functional, cell-based
[46] = cells; settings: HEK293
[47] = A549 cell cytotoxicity, dose response, cytotoxicity control, plate reader, dry powder, set 6 (AID 743312); format: functional, cell-based

COc1ccc(NC(=O)c2nc(S(=O)(=O)Cc3cccc(C)c3)ncc2Cl)c(OC)c1
EC50 [1]: 36.7 µM (active) | AC50 [2]: 3.35 µM (active) | EC50 [3]: 19.2 µM (active) | AC50 [4]: 0.299 µM (active) | AC50 [5]: 10 µM (active) | AC50 [6]: 8.06 µM (active) | AC50 [7]: 1.48 µM (active) | AC50 [8]: > 70 µM (inactive)

Cc1ccc(S(=O)(=O)CCC(=O)Nc2nc(-c3ccncc3)cs2)cc1
CC50 [9]: > 40 µM (active) | EC50 [10]: 6.58 µM (active) | EC50 [11]: 17.1 µM (inconclusive) | IC50 [12]: > 122 µM (inactive) | IC50 [13]: > 122 µM (inactive) | CC50 [14]: > 20 µM (active)

Cn1c(NC(=O)c2ccccc2)nc2ccccc21
EC50 [15]: > 150 µM (not active) | AbsAC90 [16]: 299.99 µM | CC50 [9]: > 40 µM (active) | EC50 [17]: > 150 µM (not active) | IC50 [18]: 2.41 µM (active) | EC50 [19]: 14.8 µM (active)

O=C(Nc1cc(Sc2nc3ccccc3s2)cc([N+](=O)[O-])c1)c1ccccc1F
EC50 [20]: > 60 µM (not active) | AC50 [21]: 24.3 µM (active) | EC50 [22]: 1.92 µM (active)

Cc1ccc([N+](=O)[O-])cc1NC(=O)C1CCCC1
EC50 [23]: > 67.5 µM (inactive) | IC50 [24]: > 67.5 µM (inactive)

COc1ccc(-c2cc(=O)c3ccccc3s2)cc1
AC50 [25]: > 100 µM (inactive) | EC50 [26]: > 67.5 µM (inactive) | EC50 [27]: > 67.5 µM (inactive)

CCCC#Cc1ccc2c(c1)O[C@@H](CN(C)S(=O)(=O)c1cccc(F)c1)[C@@H](C)CN([C@H](C)CO)S2(=O)=O
AC50 [28]: 12.4 µM (active) | AC50 [29]: 7.8 µM (active) | AC50 [30]: 10.8 µM (active)

Cc1cccc(-c2ccc([C@H]3[C@H](CO)N4CCCCN(Cc5cccnc5)C[C@@H]34)cc2)c1
AC50 [31]: 17.9 µM (active) | AC50 [32]: 0.259 µM (active)

NS(=O)(=O)c1ccc(NC2=CC(=O)c3ccccc3C2=O)cc1
AC50 [33]: 0.0771 µM (active) | AC50 [34]: 0.703 µM (active) | AC50 [35]: > 70 µM (inactive) | AC50 [36]: 1.16 µM (active) | AC50 [37]: 0.703 µM (active) | AC50 [38]: 0.751 µM (active) | AC50 [39]: > 70 µM (inactive) | AC50 [40]: 7.15 µM (active) and 7.63 µM (active) | AC50 [41]: 1.23 µM (active)

Cc1c(OCc2ccccc2)c(=O)ccn1CCNc1c2ccccc2nc2ccccc12
IC50 [42]: 4 µM (active)

O=c1c2cc([N+](=O)[O-])ccc2nc(CN2CCCNCC2)n1-c1ccccc1
IC50 [43]: 0.94 µM (active) | IC50 [44]: 2.48 µM (inconclusive)

c1ccc(-c2ccc(OCCn3cnc4ccccc43)cc2)cc1
AC50 [45]: 5.92 µM (active) | AC50 [46]: > 52 µM (inactive) | AC50 [47]: 0.66 µM (active)

Reference: ChEMBL document CHEMBL1201862, “PubChem BioAssay data set” (2004)
